Data from article PMC8588511, “Chromane Derivatives from Underground Parts of Iris tenuifolia and Their In Vitro Antimicrobial, Cytotoxicity and Antiproliferative Evaluation” (Molecules, 2021).
“Also recorded” adds a separate entry of the source. Like-named read-outs stand apart in the source and are kept apart here.

Tests used:
[1] = test system: human acute monocytic leukemia cells (THP-1); test: antiproliferation assay (CellTiter-Blue); type: cell-based; conditions: for GI50: THP-1, 72 h, read-out: Antiproliferative Effect, GI50 (CI 95%)
Description: (§1) In this assay, K-562 (DSM ACC 10), THP-1 (DSM ACC 16), and HeLa (DSM ACC 57) were maintained in Roswell Park Memorial Institute (RPMI) 1640 medium (Cambrex 12-167F) while HUVEC (ATCC CRL-1730) and A549 (DSM ACC 107) were cultured in Dulbecco’s Modified Eagle’s Medium (DMEM) (Cambrex 12-614F). Cells that were grown in the appropriate cell culture medium were supplemented with 10 mL/L ultraglutamine 1 (Cambrex 17-605E/U1), 550 µL/L (50 mg/mL) gentamicin sulfate (Cambrex 17-518Z), and 10% heat inactivated fetal bovine serum (GIBCO Life Technologies 10270-106) at 37 °C. The tested compounds were dissolved in DMSO, and the cells were seeded in 96-well plates at a density of 1 × 10^4 cells/well. As for the antiproliferative effect of the compounds, the cells were incubated for 72 h, and GI50 values were evaluated to be defined as the concentration causing 50% inhibition of proliferation compared to the untreated control. With regard to the cytotoxic assay, HeLa cells were pre-incubated for 48 h without the test compounds. Then, the cells were exposed with different concentrations of compounds and incubated for 72 h. After that, the adherent HeLa cells were fixed by glutaraldehyde and stained with a 0.05% solutions of methylene blue (SERVA 29198) for 15 min. CC50 was evaluated to be defined as the concentration required for the death of 50% of the cell monolayer as compared to control groups. Under our experimental conditions, the optical density measured from the CellTiter-Blue reagent and methylene blue assay is proportional to the number of viable cells. In this experiment, absorbances were measured at 570 nm against the reference wavelength of 600 nm (CellTiter-Blue assay) and at 660 nm (methylene blue assay). Doxorubicin (Adriamycin®) and imatinib (Gleevec®) were used as positive controls for HUVEC, K-562, and HeLa cells. A repeat determination has been conducted in all experiments, and four replicates were assayed. The calculations of the different values of GI50 and CC50 were performed with software Magellan version 3.00 (Tecan Trading AG, Maennedorf, Switzerland).

[2] = test system: human chronic myeloid leukemia cells (K-562); test: antiproliferation assay (CellTiter-Blue); type: cell-based; conditions: for GI50: K-562, 72 h, read-out: Antiproliferative Effect, GI50 (CI 95%)
Description: as §1

[3] = test system: human lung carcinoma cells (A549); test: antiproliferation assay (CellTiter-Blue); type: cell-based; conditions: A549, 72 h, read-out: Antiproliferative Effect, GI50 (CI 95%)
Description: as §1

[4] = test system: human umbilical vein endothelial cells (HUVEC); test: antiproliferation assay (CellTiter-Blue); type: cell-based; conditions: 72 h, read-out: Antiproliferative Effect, GI50 (CI 95%)
Description: as §1

[5] = test system: human cervix carcinoma cells (HeLa); test: cytotoxicity assay (methylene blue); type: cell-based
Description: as §1

[6] = test system: Candida albicans (C.alb.H8); test: agar diffusion antifungal assay; type: cell-based; conditions: for zone of inhibition at 1000 µg/mL: read-out: Inhibition Zone of Test Microorganism; for antifungal activity in words: Candida albicans, agar diffusion
Description: (§2) Compounds 1, 2, 3, 5, 9, and 10 were tested for their antimicrobial activities against S. aureus (JMRC:STI 10760), B. subtilis (JMRC:STI 10880), S. aureus MRSA (JMRC: ST 33793) E. faecalis VRE (JMRC: ST 33700), E. coli (JMRC:ST 33699), P. aeruginosa (JMRC:ST 33771), P. aeruginosa (JMRC:ST 33772), M. vaccae (JMRC:STI 10670), S. salmonicolor (JMRC:ST 35974), C. albicans (JMRC:STI 25000), and P. notatum (JMRC:STI 50164)) using agar diffusion assay as previously published. Strains were obtained from the Jena Microbial Resource Collection (JMRC). The bacteria were cultivated on standard I nutrient agar in Petri dishes at 37 °C. Antifungal bioassays were conducted at 30 °C using the basidiomycetous yeast S. salmonicolor and the filamentous ascomycete P. notatum, which were cultivated on malt agar, and the ascomycetous yeast C. albicans, which was cultivated on yeast morphology agar. After inoculation of the test organisms, a disc (9 mm in diameter) was removed from the center of the Petri dish and 50 μL of the test solution (1 mg/mL in DMSO) was added to the cavity. After 18 h of incubation, the inhibiting areola were measured and documented as diameters in mm. Ciprofloxacin (5 µg/mL in deionized water) and amphotericin B (10 µg/mL in DMSO/MeOH 1:1) were used as reference substances against bacterial and fungal strains, respectively.

[7] = test system: Penicillium notatum (JP36 P1); test: agar diffusion antifungal assay; type: cell-based
Description: as §2

[8] = test system: Sporobolomyces salmonicolor (549 H4); test: agar diffusion antifungal assay; type: cell-based; conditions: 50 μL of 1 mg/mL in DMSO, 18 h, 30 °C, amphotericin B 10 µg/mL
Description: as §2

[9] = test system: Bacillus subtilis (6633 B1); test: agar diffusion antimicrobial assay; type: cell-based; conditions: Bacillus subtilis (6633 B1), 50 μL of 1 mg/mL in DMSO, 18 h, ciprofloxacin 5 µg/mL; for zone of inhibition at 1000 µg/mL: read-out: Inhibition Zone of Test Microorganism
Description: as §2

[10] = test system: Enterococcus faecalis (VRE 1528 R10); test: agar diffusion antimicrobial assay; type: cell-based; conditions: Enterococcus faecalis (VRE 1528 R10), 50 μL of 1 mg/mL in DMSO, 18 h, ciprofloxacin 5 µg/mL; for zone of inhibition at 1000 µg/mL: read-out: Inhibition Zone of Test Microorganism
Description: as §2

[11] = test system: Escherichia coli (458 B4); test: agar diffusion antimicrobial assay; type: cell-based; conditions: 50 μL of 1 mg/mL in DMSO, 18 h, ciprofloxacin 5 µg/mL
Description: as §2

[12] = test system: Mycobacterium vaccae (10670 M4); test: agar diffusion antimicrobial assay; type: cell-based; conditions: Mycobacterium vaccae (10670 M4), 50 μL of 1 mg/mL in DMSO, 18 h, ciprofloxacin 5 µg/mL; for zone of inhibition at 1000 µg/mL: Mycolicibacterium vaccae, read-out: Inhibition Zone of Test Microorganism
Description: as §2

[13] = test system: Staphylococcus aureus (511 B3); test: agar diffusion antimicrobial assay; type: cell-based; conditions: 50 μL of 1 mg/mL in DMSO, 18 h, ciprofloxacin 5 µg/mL
Description: as §2

[14] = test system: Staphylococcus aureus (MRSA 134/94 R9); test: agar diffusion antimicrobial assay; type: cell-based; conditions: 50 μL of 1 mg/mL in DMSO, 18 h, ciprofloxacin 5 µg/mL
Description: as §2

[15] = test system: Pseudomonas aeruginosa (K799/61 B9); test: agar diffusion antimicrobial assay; type: cell-based; conditions: 18 h
Description: as §2

[16] = test system: Pseudomonas aeruginosa (SG137 B7); test: agar diffusion antimicrobial assay; type: cell-based; conditions: 50 μL of 1 mg/mL in DMSO, 18 h, ciprofloxacin 5 µg/mL
Description: as §2

[17] = cytotoxicity assay (methylene blue); type: cell-based, human; conditions: human, HeLa cells (DSM ACC 57); HeLa, 72 h; read-out: Cytotoxicity CC50 (CI 95%)
Description: as §1

[18] = test system: three fungi and eight bacterial strains; test: agar diffusion assay, whole panel; type: cell-based; conditions: eleven microorganisms
Description: as §2

[19] = Candida albicans (C.alb.H8), 50 μL of 1 mg/mL in DMSO, 18 h, 30 °C, amphotericin B 10 µg/mL
[20] = read-out: Inhibition Zone of Test Microorganism

Compound	Inhibition Zone of Test Microorganism [14]	zone of inhibition at 1000 µg/mL [9] [mm]	zone of inhibition at 1000 µg/mL [10] [mm]	zone of inhibition at 1000 µg/mL [12] [mm]	Inhibition Zone of Test Microorganism [16]	zone of inhibition at 1000 µg/mL [6, 19] [mm]	antifungal activity in words [6]	GI50 ([1]; Homo sapiens) [µM]	GI50 ([2]; Homo sapiens, K562) [µM]	GI50 ([3]; Homo sapiens) [µM]	GI50 ([4]; Homo sapiens) [µM]	CC50 at 72 h [17] [µM]	antimicrobial activity over the panel in words [18]	other results
3,5,3′-Trihydroxy-7,2′-dimethoxyflavonol [Compound 11]														GI50 [1]: 50.6 µM; GI50 [2]: 71.5 µM; GI50 [3]: 67 µM; GI50 [4]: > 100 µM; CC50 [5]: > 100 µM
C[C@@H]1[C@H](O)[C@@H](C)/C=C/C=C/C=C/C=C/C=C/C=C/C=C/[C@H](O[C@@H]2O[C@H](C)[C@@H](O)[C@H](N)[C@@H]2O)C[C@@H]2O[C@](O)(C[C@@H](O)C[C@@H](O)[C@H](O)CC[C@@H](O)C[C@@H](O)CC(=O)O[C@H]1C)C[C@H](O)[C@H]2C(=O)O [Amphotericin B, reference compound]														Inhibition Zone of Test Microorganism [6, 19]: 20 mm; Inhibition Zone of Test Microorganism ([7]; Penicillium notatum (JP36 P1), 50 μL of 1 mg/mL in DMSO, 18 h, 30 °C, amphotericin B 10 µg/mL): 19 mm; Inhibition Zone of Test Microorganism [8]: 19 mm
O=C(O)c1cn(C2CC2)c2cc(N3CCNCC3)c(F)cc2c1=O [Ciprofloxacin, reference compound]	-													Inhibition Zone of Test Microorganism [9]: 29 mm; Inhibition Zone of Test Microorganism [10]: 16 mm; Inhibition Zone of Test Microorganism [11]: 32 mm; Inhibition Zone of Test Microorganism [12]: 22 mm; Inhibition Zone of Test Microorganism [13]: 19 mm
O=C1CC(c2cccc(O)c2O)Oc2cc3c(c(O)c21)OCO3 (centres unmarked) [Compound 5, 5,2′,3′-Trihydroxy-6,7-methylenedioxyflavanone]		13	13	20	-	13	weak activity	16.5	44.3	> 100	69	> 100	most active; also recorded: broad activity against eight microorganisms out of eleven	zone of inhibition at 1000 µg/mL ([15]; Pseudomonas aeruginosa, read-out: Inhibition Zone of Test Microorganism): 17 mm; zone of inhibition at 1000 µg/mL [13, 20]: 15 mm; zone of inhibition at 1000 µg/mL [14, 20]: 13 mm; zone of inhibition at 1000 µg/mL ([7]; Penicillium chrysogenum, Penicillium notatum (JP36 P1), 50 μL of 1 mg/mL in DMSO, 18 h, 30 °C, amphotericin B 10 µg/mL, read-out: Inhibition Zone of Test Microorganism): 16 mm; antifungal activity in words ([7]; Penicillium notatum, agar diffusion): moderate activity
COc1cc2occ(-c3cccc(O)c3O)c(=O)c2c(O)c1OC [Compound 10, 5,2′,3′-Trihydroxy-6,7-dimethoxyisoflavone]	-	13	13	16	-	13	weak activity	9.1	7.6	98.8	35.8	> 100	most active	Inhibition Zone of Test Microorganism ([15]; Pseudomonas aeruginosa (K799/61 B9), 50 μL of 1 mg/mL in DMSO, ciprofloxacin 5 µg/mL): -; antiproliferative activity in words ([1]; THP-1): active; antiproliferative activity in words ([2]; K-562): active
